Earlier results as cited in PMC3401542 (Bioorganic & medicinal chemistry, 2012).

Test system: N1 NAs
Details: read-out: inhibition (IC50) of N1 NAs; range over N1 NAs; ref [28]; cited from earlier work

CCC(CC)O[C@@H]1C=C(C(=O)O)C[C@H](N)[C@H]1NC(C)=O [Compound 1c, oseltamivir carboxylate]
IC50: 0.3 to 0.8 nM
